From patent US5071955A, “Octopeptide exhibiting antimypertensive activity” (Nippon Suisan Kaisha, Ltd., priority 1988, dated 1991)
Peptide text beside a SMILES is read from it.

How the values were obtained:
[1] = tested on: Wistar rats; assay: Intravenous LD50 in Wistar rats; assay type: in vivo; details: in physiological saline, 6 week old male and female Wistar rats, 2 week observation
Protocol: (§1) The peptide of formula (I) prepared in Example 2 was dissolved in physiological saline.
(§2) Various concentrations of the peptide in physiological saline were intravenously administered to test animal groups each consisting of 6 week old male (10/group) or female (10/group) ICR mice, or 6 week old male (10/group) or female (10/group) Wistar rats. The LD50 value was determined after a 2 week observation period.

[2] = target: Angiotensin I converting enzyme (ACE) (Homo sapiens, UniProt P12821); assay: Angiotensin I converting enzyme (ACE) inhibitory activity, method of Cushman and Cheung; assay type: biochemical; details: Hip-His-Leu substrate, pH 8.3, 37° C., 30 min
Protocol: A prescribed amount of sample was added to a solution composed of 1-10 mU ACE, 2.5 mM Hip-His-Leu substrate (produced by Peptide Research Institute), 100 mM potassium-phosphate buffer (pH 8.3), and 300 mM NaCl. 0.25 ml of this mixture was incubated at 37° C. for 30 min, and the enzymatic reaction was stopped by adding 0.25 ml of 1N HCl. 1.5 ml of ethylacetate was then added and the mixture was vigorously shaken for 10 second, following which the hippuric acid produced was extracted. […] A blank (ODsbl) was made by adding 1N HCl prior to incubation, and the difference in absorbance, ODs-ODsbl, was determined. […] ACE inhibitory activity was calculated using the following equation: [formula]

[3] = tested on: ICR mice; assay: Intravenous LD50 in ICR mice; assay type: in vivo; details: in physiological saline, 6 week old male and female ICR mice, 2 week observation
Protocol: as §1, §2

Chain of Angiotensin I converting enzyme (ACE) (P12821 30-1306, species assumed): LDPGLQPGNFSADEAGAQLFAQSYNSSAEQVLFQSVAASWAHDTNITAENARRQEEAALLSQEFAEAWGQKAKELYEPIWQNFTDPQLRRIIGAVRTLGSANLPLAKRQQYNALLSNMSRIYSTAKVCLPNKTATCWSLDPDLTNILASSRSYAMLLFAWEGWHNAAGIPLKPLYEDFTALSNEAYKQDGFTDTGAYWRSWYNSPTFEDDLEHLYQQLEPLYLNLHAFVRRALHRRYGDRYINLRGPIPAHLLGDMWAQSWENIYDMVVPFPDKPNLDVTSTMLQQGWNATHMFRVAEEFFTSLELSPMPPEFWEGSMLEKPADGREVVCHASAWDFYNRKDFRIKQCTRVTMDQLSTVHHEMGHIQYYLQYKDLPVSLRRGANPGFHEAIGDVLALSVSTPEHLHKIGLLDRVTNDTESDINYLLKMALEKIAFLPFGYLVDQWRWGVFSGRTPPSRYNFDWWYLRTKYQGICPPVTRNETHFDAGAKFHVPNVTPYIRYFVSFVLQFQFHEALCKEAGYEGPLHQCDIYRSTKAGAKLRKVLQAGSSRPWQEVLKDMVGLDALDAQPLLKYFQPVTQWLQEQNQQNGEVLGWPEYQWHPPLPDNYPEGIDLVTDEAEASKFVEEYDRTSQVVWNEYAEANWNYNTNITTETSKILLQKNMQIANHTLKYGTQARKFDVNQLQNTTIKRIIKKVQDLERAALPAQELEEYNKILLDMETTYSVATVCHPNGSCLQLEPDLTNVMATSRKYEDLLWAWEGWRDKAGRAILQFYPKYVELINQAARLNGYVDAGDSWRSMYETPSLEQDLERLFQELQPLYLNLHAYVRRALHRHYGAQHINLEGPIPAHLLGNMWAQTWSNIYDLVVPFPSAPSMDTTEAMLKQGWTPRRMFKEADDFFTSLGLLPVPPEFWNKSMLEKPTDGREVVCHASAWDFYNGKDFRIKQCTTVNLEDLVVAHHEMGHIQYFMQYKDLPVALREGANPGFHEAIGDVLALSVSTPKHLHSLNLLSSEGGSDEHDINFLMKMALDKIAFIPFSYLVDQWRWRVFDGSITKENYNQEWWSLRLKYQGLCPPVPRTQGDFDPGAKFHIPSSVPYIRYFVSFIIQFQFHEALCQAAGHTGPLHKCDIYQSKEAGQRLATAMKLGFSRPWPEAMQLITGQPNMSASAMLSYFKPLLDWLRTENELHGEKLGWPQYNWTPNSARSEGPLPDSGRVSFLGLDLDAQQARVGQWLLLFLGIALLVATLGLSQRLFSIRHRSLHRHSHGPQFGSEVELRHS

Structure (SMILES) | LD50 [1] | IC50 ([2]; sample origin: Fish) | IC50 ([2]; sample origin: Peptide Synthesis) | LD50 [3] | IC50 ([2]; comparison samples of Table 1)
CC[C@H](C)[C@H](NC(=O)[C@H](Cc1c[nH]cn1)NC(=O)[C@@H](NC(=O)[C@@H]1CCCN1)[C@@H](C)O)C(=O)N[C@@H](CCCCN)C(=O)N[C@@H](Cc1c[nH]c2ccccc12)C(=O)NCC(=O)N[C@@H](CC(=O)O)C(=O)O [Peptide (I), Pro-Thr-His-Ile-Lys-Trp-Gly-Asp] (H-PTHIKWGD-OH) | greater than 10 mg/kg | 700 nM | 600 nM | greater than 10 mg/kg | –
CC(C)C[C@H](NC(=O)[C@@H](NC(=O)[C@@H](N)CC(C)C)C(C)C)C(=O)O [Tripeptide, Leu-Val-Leu, reference compound] (H-Leu-Val-Leu-OH) | – | – | – | – | 1700 nM
